Each block holds one molecule with its values, some of them ahead of it.
Legend:
[1] = target: SRSF protein kinase 1 (Homo sapiens, UniProt Q96SB4); assay: Selectivity interaction (Ambit KINOMEscan and KiNATiv profiling in Jurkat cells) EUB0000090b SRPK1; assay type: cell-based; details: at 1 µM
[2] = target: Beta-2 adrenergic receptor (Homo sapiens, UniProt P07550); assay: Selectivity interaction (GPCR panel (PDSP screen)) EUB0001079a ADRB2; details: at 10 µM
[3] = target: T1, PAN2-PAN3 deadenylation complex subunit PAN3 (Homo sapiens) (UniProt Q58A45); assay: Selectivity interaction (ActivX KiNativ screen (kinase selectivity in THP-1 cell lysates)) EUB0000639a PAN3; assay type: subcellular; details: lysate
T1 sequence (whole entry): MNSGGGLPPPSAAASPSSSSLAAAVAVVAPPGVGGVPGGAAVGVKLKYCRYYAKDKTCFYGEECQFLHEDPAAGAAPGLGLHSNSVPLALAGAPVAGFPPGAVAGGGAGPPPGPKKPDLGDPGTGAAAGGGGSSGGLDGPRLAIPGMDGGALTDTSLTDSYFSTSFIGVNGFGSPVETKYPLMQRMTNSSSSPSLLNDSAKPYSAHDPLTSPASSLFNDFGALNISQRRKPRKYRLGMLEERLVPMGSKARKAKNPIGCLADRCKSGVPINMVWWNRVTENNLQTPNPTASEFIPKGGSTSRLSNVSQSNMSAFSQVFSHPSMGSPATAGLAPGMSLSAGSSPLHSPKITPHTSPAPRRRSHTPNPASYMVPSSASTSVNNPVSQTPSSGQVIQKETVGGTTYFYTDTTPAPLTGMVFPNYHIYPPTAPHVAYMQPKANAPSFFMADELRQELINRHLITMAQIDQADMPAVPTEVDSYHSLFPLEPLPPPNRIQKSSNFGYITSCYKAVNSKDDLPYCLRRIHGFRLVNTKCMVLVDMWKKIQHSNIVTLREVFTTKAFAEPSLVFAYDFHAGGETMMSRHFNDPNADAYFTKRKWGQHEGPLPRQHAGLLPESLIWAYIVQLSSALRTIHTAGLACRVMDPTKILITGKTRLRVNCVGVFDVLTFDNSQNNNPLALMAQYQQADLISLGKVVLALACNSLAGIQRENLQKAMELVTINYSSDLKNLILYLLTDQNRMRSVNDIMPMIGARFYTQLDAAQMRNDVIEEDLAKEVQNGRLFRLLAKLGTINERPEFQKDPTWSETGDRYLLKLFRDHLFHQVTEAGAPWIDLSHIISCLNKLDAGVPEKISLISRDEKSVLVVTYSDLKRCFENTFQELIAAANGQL

[4] = target: T2, Tyrosine-protein kinase receptor TYRO3 (Homo sapiens) (UniProt Q06418); assay: Selectivity interaction (Kinase panel (Invitrogen)) EUB0000639a TYRO3; details: at 200 nM
T2 sequence (whole entry): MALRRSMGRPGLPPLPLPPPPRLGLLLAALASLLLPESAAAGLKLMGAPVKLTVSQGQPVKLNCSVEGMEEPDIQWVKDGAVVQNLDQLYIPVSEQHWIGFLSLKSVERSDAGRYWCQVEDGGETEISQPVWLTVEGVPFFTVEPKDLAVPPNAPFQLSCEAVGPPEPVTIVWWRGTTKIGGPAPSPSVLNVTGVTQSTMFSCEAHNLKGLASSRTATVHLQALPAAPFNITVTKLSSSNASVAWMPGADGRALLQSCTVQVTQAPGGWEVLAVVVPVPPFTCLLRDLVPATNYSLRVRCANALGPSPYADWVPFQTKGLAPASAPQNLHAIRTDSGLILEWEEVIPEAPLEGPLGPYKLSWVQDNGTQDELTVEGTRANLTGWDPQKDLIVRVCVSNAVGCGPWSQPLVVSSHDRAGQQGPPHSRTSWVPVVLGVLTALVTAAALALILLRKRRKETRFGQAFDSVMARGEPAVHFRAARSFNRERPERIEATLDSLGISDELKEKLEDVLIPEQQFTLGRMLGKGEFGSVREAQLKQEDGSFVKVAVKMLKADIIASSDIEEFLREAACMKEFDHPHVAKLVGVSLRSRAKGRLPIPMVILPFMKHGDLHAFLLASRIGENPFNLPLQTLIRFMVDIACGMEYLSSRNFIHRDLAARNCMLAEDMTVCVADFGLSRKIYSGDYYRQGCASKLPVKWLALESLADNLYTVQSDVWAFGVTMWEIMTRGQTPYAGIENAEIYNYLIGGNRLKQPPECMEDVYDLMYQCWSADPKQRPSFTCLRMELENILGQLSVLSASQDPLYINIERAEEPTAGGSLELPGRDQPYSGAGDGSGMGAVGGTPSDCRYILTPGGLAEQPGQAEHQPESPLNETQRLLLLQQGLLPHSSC

[5] = target: T3, Peripheral plasma membrane protein CASK (Homo sapiens) (UniProt O14936); assay: Selectivity interaction (KinomeScan (DiscoverX)) EUB0000229b CASK; details: at 10 µM
T3 sequence (whole entry): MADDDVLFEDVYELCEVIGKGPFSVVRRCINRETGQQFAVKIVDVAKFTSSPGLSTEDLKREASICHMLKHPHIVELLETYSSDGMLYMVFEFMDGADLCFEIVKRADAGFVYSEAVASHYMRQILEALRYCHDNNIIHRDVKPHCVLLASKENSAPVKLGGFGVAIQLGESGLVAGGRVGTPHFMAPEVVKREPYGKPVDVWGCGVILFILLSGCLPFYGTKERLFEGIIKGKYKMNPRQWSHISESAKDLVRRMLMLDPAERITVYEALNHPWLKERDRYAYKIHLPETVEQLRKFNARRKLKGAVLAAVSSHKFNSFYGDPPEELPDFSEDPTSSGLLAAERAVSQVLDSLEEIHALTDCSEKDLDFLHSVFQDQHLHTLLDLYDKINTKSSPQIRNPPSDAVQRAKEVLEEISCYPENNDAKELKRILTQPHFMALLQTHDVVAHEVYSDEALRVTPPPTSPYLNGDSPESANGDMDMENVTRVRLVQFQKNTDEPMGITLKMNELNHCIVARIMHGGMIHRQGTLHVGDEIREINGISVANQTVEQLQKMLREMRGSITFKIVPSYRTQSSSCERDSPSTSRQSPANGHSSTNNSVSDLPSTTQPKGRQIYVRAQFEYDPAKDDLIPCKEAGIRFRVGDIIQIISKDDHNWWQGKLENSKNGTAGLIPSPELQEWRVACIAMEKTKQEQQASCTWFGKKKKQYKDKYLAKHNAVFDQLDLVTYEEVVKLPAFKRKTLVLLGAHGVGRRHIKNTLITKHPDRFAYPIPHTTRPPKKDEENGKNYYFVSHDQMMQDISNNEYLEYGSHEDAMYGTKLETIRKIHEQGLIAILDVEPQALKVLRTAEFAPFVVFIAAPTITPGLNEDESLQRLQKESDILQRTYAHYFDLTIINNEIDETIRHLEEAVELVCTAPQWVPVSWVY

[6] = target: Dual specificity protein kinase CLK2 (Homo sapiens, UniProt P49760); assay: Selectivity interaction (ProQinase) EUB0000171b CLK2
Dual specificity protein kinase CLK2, sequence (P49760 whole entry, looked up): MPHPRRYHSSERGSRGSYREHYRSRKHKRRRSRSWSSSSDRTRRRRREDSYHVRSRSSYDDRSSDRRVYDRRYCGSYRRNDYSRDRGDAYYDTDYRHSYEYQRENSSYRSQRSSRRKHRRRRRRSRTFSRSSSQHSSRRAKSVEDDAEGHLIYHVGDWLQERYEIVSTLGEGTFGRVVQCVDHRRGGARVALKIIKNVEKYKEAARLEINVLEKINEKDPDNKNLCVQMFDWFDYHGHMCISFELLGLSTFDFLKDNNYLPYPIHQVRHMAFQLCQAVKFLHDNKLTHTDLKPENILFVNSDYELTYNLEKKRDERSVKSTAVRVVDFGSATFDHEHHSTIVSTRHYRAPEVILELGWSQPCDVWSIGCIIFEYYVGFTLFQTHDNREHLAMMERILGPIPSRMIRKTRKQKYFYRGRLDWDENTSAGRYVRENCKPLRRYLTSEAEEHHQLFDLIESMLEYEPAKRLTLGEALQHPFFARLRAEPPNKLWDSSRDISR

Beta-2 adrenergic receptor, sequence (P07550 whole entry, looked up): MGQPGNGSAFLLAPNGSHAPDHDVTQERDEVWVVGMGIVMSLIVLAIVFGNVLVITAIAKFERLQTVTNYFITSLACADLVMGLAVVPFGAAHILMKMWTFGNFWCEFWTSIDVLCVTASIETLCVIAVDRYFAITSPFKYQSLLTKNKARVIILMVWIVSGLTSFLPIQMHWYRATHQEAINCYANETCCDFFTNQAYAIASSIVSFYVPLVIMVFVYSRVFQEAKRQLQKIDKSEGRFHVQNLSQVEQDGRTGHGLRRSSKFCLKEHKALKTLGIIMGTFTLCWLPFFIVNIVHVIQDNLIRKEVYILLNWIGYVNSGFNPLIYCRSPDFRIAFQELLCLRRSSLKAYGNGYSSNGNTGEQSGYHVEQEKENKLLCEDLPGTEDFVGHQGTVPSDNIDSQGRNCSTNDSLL
SRSF protein kinase 1, sequence (Q96SB4 whole entry): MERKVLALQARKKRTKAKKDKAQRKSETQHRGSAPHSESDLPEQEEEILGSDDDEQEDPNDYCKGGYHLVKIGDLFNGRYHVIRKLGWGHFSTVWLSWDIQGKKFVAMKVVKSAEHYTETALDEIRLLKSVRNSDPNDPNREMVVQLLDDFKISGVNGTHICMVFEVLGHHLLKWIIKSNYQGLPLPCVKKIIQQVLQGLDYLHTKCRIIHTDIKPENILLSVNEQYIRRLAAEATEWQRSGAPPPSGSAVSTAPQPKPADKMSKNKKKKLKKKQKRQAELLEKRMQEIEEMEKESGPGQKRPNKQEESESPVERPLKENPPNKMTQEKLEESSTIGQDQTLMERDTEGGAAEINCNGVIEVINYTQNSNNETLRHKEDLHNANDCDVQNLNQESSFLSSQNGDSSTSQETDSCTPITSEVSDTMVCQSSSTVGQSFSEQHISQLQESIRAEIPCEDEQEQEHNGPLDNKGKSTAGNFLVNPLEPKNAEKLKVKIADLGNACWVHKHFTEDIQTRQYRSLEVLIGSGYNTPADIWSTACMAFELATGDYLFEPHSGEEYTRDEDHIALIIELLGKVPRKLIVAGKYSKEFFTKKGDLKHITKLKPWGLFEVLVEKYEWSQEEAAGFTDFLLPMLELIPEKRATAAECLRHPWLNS

Structure (SMILES): CN(C)C/C=C/C(=O)Nc1ccc(C(=O)N2CCCC(Nc3ncc(Cl)c(-c4c[nH]c5ccccc45)n3)C2)cc1 (stereo unspecified)
% of control [1]: 52%

Structure (SMILES): Nc1cnc(N2CCc3cc(S(=O)(=O)Nc4c(F)cc(Cl)cc4F)cc(N4CCCC4=O)c32)nc1 [TP-020n]
% of inhibition [2]: -3.08%

% of inhibition ([3]; at 0.01 µM): 20.4%
% of inhibition ([3]; at 0.04 µM): -4.3%
% of inhibition ([3]; at 0.2 µM): -4.4%
% of inhibition ([3]; at 1 µM): -2.8%
% of inhibition ([3]; at 5 µM): -19.6%
% of inhibition [4]: 5.87%
Structure (SMILES): CC[C@@H]1[C@H](F)C(=O)N[C@@H]1COc1nccc2cc(C(N)=O)c(OC)cc12 [ZIMLOVISERTIB]

Structure (SMILES): COc1cc(N(C)c2ccnc3ccc(C(F)(F)F)cc23)cc(OC)c1OC
% binding [5]: 55%

% of control ([6]; at 1 µM): 81%
% of control ([6]; at 5 µM): 51%
Structure (SMILES): C=CC(=O)Nc1cccc(C(=O)Nc2ccc(Nc3cc(-c4[nH]c(SC)nc4C)ccn3)cc2)c1

— ChEMBL document CHEMBL5465560, “Selectivity Literature for EUbOPEN Chemogenomic Library” (2024)
